Where “and” joins values, the source holds several entries; their conditions need not be identical. Identical values can stand only once.

Data set [1] addresses T1, PDE11A4 (Homo sapiens, UniProt Q9HCR9).
T1 construct: His-tag (N); made in house; host or cells: Sf21 insect cells (baculovirus)
Put plainly: PDE11A4 scintillation proximity assay (SPA), inhibition of [3H]-cGMP hydrolysis. In kind it is biochemical. The following applies: 0.4 μM [3H]-cGMP, 1 ng PDE11A4, RT 1 h, His-tagged recombinant enzyme.
Protocol: Effect of IBMX and dipyridamole was tested. Assays were performed in 384-well white plates in 20 μl containing the indicated concentration of inhibitor, 0.4 μM [^3H]-cGMP (0.025 μCi/well) and 1 ng PDE11A4 in 50 mM Tris-HCl, pH 7.5, 8.3 mM MgCl2, 1.7 mM EGTA, 0.5 mg/ml BSA. Reaction mixtures were incubated at RT for 1 h, then quenched with 30 μl of 18 mM ZnSO4 containing 0.15 mg Yttrium SPA PDE beads. The assay plates were sealed, allowed to settle for 30 min at RT, and counted on a TopCount NTX microscintillation counter (Packard). Reactions were run in triplicate.

The target in data set [2] is T1, PDE11A4. Put plainly: Lineweaver-Burk analysis of PDE11A4 SPA to determine Km for cGMP. In kind it is biochemical. To be noted: 1 ng PDE11A4, various cGMP concentrations, RT, 0-90 min. The protocol:
FIG. 17. Lineweaver-Burk analysis to determine Km values for cGMP. Reaction mixtures (20 μl/well) containing 1 ng PDE11A4 and various concentrations of cGMP (1.25 mCi/μmol) were incubated at RT. At various time points between 0 and 90 min the reactions were stopped with 30 μl of 18 mM ZnSO4 containing 0.15 mg Yttrium SPA PDE beads. The assay plates were sealed, allowed to settle for 30 min at RT, and counted on a TopCount NTX microscintillation counter (Packard). Reactions were run in triplicate. A, Time courses of PDE11A4 reaction with various concentration of cGMP. B, Lineweaver-Burk analysis. The Km value for cGMP was determined as 0.4 μM.
Expression of recombinant PDE11A4 was examined by baculovirus expression system in Sf21 cells with or without His-tag at the N-terminus. Since both expression level and enzyme activity of the His-tagged PDE11A4 (His-PDE11A4) was much higher than those of non-tagged enzyme (FIG. 15), His-PDE11A4 was selected for further use. The maximum expression level and activity were obtained from the cells cultured 24 to 48 h after transfection. The His-PDE11A4 was successfully purified by Ni^2+-chelating column chromatography (FIG. 16). The assay was carried out in scintillation proximity assay (SPA) using cGMP as substrate. Km value for cGMP was determined to be 0.4 μM (FIG. 17). […]

Data set [3] relates to human PDE-like enzyme. As to the kind of experiment: Expression of human PDE-like enzyme by Western blotting in oligonucleotide-treated HCT116 cells. In kind it is cell-based. To be noted: HCT116, oligonucleotide added for seven days. The protocol: The cell line used for testing is the human colon cancer cell line HCT116. Cells are cultured in RPMI-1640 with 10-15% fetal calf serum at a concentration of 10,000 cells per milliliter in a volume of 0.5 ml and kept at 37° C. in a 95% air/5%CO2 atmosphere.
Phosphorothioate […] are synthesized on an Applied Biosystems Model 380B DNA synthesizer using phosphoroamidite chemistry. A sequence of 24 bases complementary to the nucleotides at position 1 to 24 of SEQ ID NO: 1 is used as the test oligonucleotide. As a control, another (random) sequence is used: 5′-TCAACTGACTAGATGTACATGGAC-3′. Following assembly and deprotection, oligonucleotides are ethanol-precipitated twice, dried, and suspended in phosphate buffered saline at the desired concentration. Purity of the oligonucleotides is tested by capillary gel electrophoresis and ion exchange HPLC. The purified oligonucleotides are added to the culture medium at a concentration of […] once per day for seven days.
This effect is not observed with the control oligonucleotide. After 3 to 7 days, the number of cells in the cultures is counted using an automatic cell counter. The number of cells in cultures treated with the test oligonucleotide (expressed as 100%) is compared with the number of cells in cultures treated with the control oligonucleotide.

T1 sequence (Q9HCR9 whole entry): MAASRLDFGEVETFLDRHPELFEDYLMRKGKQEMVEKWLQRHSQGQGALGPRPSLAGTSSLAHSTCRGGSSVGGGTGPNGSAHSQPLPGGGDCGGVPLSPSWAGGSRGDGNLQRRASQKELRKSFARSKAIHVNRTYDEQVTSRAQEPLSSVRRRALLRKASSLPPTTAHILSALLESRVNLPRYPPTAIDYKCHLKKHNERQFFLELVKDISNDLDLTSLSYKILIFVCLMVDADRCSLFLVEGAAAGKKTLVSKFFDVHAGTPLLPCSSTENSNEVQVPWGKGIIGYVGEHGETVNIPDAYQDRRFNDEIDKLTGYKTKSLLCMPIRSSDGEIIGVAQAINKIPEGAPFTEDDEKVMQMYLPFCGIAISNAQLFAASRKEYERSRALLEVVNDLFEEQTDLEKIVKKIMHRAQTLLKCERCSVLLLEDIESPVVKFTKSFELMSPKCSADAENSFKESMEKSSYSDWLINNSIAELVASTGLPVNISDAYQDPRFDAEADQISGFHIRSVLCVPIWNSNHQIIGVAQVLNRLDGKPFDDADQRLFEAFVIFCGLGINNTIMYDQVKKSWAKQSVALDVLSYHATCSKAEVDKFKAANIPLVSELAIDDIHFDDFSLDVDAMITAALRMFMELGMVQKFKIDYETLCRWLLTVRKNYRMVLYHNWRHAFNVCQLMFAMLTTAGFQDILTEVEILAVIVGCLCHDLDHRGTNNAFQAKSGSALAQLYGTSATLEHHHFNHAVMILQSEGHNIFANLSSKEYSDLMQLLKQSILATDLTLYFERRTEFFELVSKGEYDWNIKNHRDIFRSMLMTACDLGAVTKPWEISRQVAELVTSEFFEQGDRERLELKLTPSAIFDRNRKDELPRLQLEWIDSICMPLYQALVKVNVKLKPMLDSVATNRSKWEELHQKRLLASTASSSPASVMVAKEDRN

In the case of `CC(C)Cn1c(=O)n(C)c(=O)c2[nH]cnc21` [IBMX], in data set [1], the IC50 is 41 µM and 41.3 µM.
Take `Nc1nc2c(ncn2[C@@H]2O[C@@H]3COP(=O)(O)O[C@H]3[C@H]2O)c(=O)[nH]1` [cGMP]: the Michaelis-Menten constant (Km) in data set [2] was 0.4 µM.
In the case of “control oligonucleotide: control (random) sequence 5′-TCAACTGACTAGATGTACATGGAC-3′ (DNA TCAACTGACTAGATGTACATGGAC; chemistry not given here)”, in data set [3], the “expression of human PDE-like enzyme (Western blotting)” value was “not observed”.

These data come from patent US20020103120A1, “Regulation of human phosphodiesterase-like enzyme” (priority 2000, published 2002).
